Experiments:
U87MG SLC-GFP xenograft = assay: Administration to zebrafish glioma xenograft model; format: in vivo; settings: 10 μM in hatching solution, 48 hours
Description: 3000 green-fluorescent-labeled U87MG SLC-GFP were injected into the yolk sac of the 48-hour zebrafish embryo. After 48 hours of natural growth, fluorescence microscopy was used to detect the tumorigenesis in zebrafish. And then clofoctol at a concentration of 10 μM was added to the zebrafish hatching solution. After 48 hours of medicament treatment, the green fluorescence intensity of zebrafish yolk sac was detected by fluorescence microscopy to determine the in vivo inhibitory effect of clofoctol on tumors in zebrafish xenograft models.

GSC2 [1] = assay: Annexin V/PI counterstaining for the detection of apoptosis; format: cell-based, human; settings: GSC2, 1-30 μM, 12 hours or 24 hours
Description: (1) GSC2 were treated with clofoctol at the concentrations of 1 μM, 3 μM, 10 μM, 30 μM for 12 hours or 24 hours;
(2) the cells were collected and washed twice with PBS;
(3) the cells were resuspended with 50 μL 1*binding buffer with the cell density of about 1*10^6 cells/mL;
(4) 2.5 μL FITC Annexin V and 2.5 μL PI were added;
(5) incubating for 15 min at room temperature in the darkness;
(6) 200 μL of 1*binding buffer was added to the system, and the cells in each treatment tube was passed through the cell strainer;
(7) flow cytometry analysis;
The Annexin V/PI counterstaining kit used was purchased from BD pharmingen with the product lot number 556547.

[2] = test system: glioma stem cells (GSC5; FIG. 6 legend: GSC2); assay: Recovery assay (MTS after removal of medicament); format: cell-based, human; settings: 24 or 48 hours treatment, then 48 hours in fresh medium
Description: (1) The 96-well cell culture plate was coated with 100 μg/mL poly-lysine.
(2) GSC5 was digested into single cell using ACCUTASE enzyme, resuspended in fresh Neurobasal culture medium, and the cells were then plated on the pre-coated 96-well cell culture plates overnight;
(3) clofoctol was added, the concentration of which were 0.03 μM, 0.1 μM, 0.3 μM, 1 μM, 3 μM, 10 μM and 30 μM, 9 replicate wells for each concentration;
(4) after 24 hours of treatment, 20 μL MTS/PMS mixed reagent was added to 3 replicate wells of each concentration to measure the cell activity. The medicament-containing medium in the other 6 replicate wells was removed, fresh medium was added to 3 of the 6 replicate wells, and medium containing the same concentration of clofoctol was added to the rest 3 replicate wells;
(5) after 48 hours of incubation, cell activity was detected by MTS assay.
After 48 hours of medicament treatment, the cells were restored for 48 hours and then detected, the steps are as above.

GSC5 = assay: Limited dilution experiment (self-renewal); format: cell-based, human; settings: GSC5, 1 μM, 3 μM and 10 μM, 2 weeks
Description: (1) The cells of GSC5 tumorspheres in suspension culture were collected into a 15 mL centrifuge tube, 0.5 mL of ACCUTASE enzyme (purchased from sigma) was added, and the cells were digested at 37° C. for 5 minutes. Then the cells were pipetted to single cell and the supernatant was removed after centrifugation;
(2) Fresh Neurobasal culture medium (purchased from gibco) was added. A portion of the cells were taken for trypan blue staining, followed by cell counting.
(3) After calculating the desired volume of cell culture medium, the cell concentration gradient of 200, 100, 50, 25 cells/well was set, and 10 replicate wells for each concentration were set. The DMSO control group and medicament treatment group with 0 μM, 1 μM, 3 μM and 10 μM of clofoctol were set.
(4) The cells were seeded in a 96-well plate at 100 and cultured in an incubator at 37° C., 5% CO2, 2 weeks later the proportion of the well without tumorsphere was counted;

GSC2 [3] = assay: In situ tumorigenesis in nude mice of pretreated GSC2; format: in vivo, Balb/C nude mice
Description: The cells were collected after 24 hours of pre-treatment with clofoctol at a concentration of 30 μM, washed twice with PBS, and a portion of the cells were subjected to trypan blue staining and cell counting. The cells were injected in situ into the intracranial striatum of Balb/C nude mice aged 5-7 weeks, at 10^5 cells/mouse, 5 mice each group, and a DMSO control group was set.

GSC2 subcutaneous tumors = assay: Subcutaneous GSC2 xenograft at armpits of nude mice; format: in vivo, Balb/C nude mice; settings: 20 mg/kg, intraperitoneal injection, 11 days
Description: Subcutaneous tumorigenesis at armpits of nude mice: after centrifugation and digestion, GSC2 single cell re-suspended in PBS was subcutaneously inoculated into the armpits of 15 Balb/C nude mice of 5 weeks old. The inoculation number of the cells was 10^5 cells/mouse. The tumor size of nude mice was recorded (tumor size in nude mice=length*width^2/2). When the subcutaneous tumors in nude mice reached about 100 mm^3, they were divided into DMSO group and clofoctol administration group. The dose administered was 20 mg/kg, the mice were administered by intraperitoneal injection for a period of 11 days. The changes in tumor size and the body weight in two groups of nude mice were recorded.

[4] = test system: glioma stem cells (GSC2-GFP, U87MG SLC-GFP) co-cultured with normal human astrocytes (HA); assay: Flow cytometry of co-culture model (GSC2-GFP or U87MG SLC-GFP + HA-RFP); format: cell-based; settings: 24 hours, 1-30 μM; compared with normal human astrocytes
Description: 6-well and 96-well cell culture plates were pre-coated with 100 μg/mL poly-lysine at 37° C. overnight, followed by washing twice with saline and allowing to air-dry. GSC2-GFP cells stably expressing green fluorescence and HA cells stably expressing red fluorescence were digested into single cell, and resuspended in fresh culture medium, counted and diluted to 5×10^4 cells/mL. Then, the two types of cells were mixed well at a ratio of 1:1, divided into five tubes. Clofoctol were added in each tube and mixed well, so that the concentrations of clofoctol were 0 μM, 1 μM, 3 μM, 10 μM, 30 μM, respectively. The resulting mixtures were added to a 6-well cell culture plate (2 mL) and a 96-well cell culture plate (100 μL, 3 replicate wells per group) respectively for 24 hours, before the MTS assay was used to detect the cell activity of each treatment group in the 96-well cell culture plate. The cells in the 6-well cell culture plates were collected separately, washed twice with PBS, and resuspended with 100 μL respectively. The proportion of GSC2-GFP and HA-RFP in the viable cells of each treatment group was analyzed by flow cytometry. Considering the changes in cell activity after medicament treatment of the co-culture model, the relative cell viability of each cell component in the co-culture model was statistically analyzed. […]

[5] = test system: glioma stem cells (U87MG SLC, U251 SLC, GSC2, GSC5); assay: Detection of cell viability by MTS assay; format: cell-based, human
Text: “MTS assay”: a colorimetric method for determining the number of viable cells in proliferation assays and cytotoxicity assays. MTS is a novel tetrazolium compound. PMS is an electron coupling reagent with enhanced chemical stability, which forms a stable solution when mixed with MTS. MTS can be reduced by cellular organisms to generate a colored formazan product that is soluble in culture media. This conversion is thought to be carried out by NAD(P)H-dependent dehydrogenase enzymes in metabolically active cells. The amount of the formazan product, which is quantified at 490 nm, is proportional to the number of viable cells in culture.
“The relative cell viability”: after the detection of the value of absorbance by above MTS assay, the relative cell viability is calculated based on the value of absorbance (A). […]
(2) In order to detect the effect of clofoctol on cell viability of glioma stem cells, the experiment was carried out using a 96-well cell culture plate which is coated with 100 μg/mL poly-lysine overnight, wherein the plate was washed twice next day with saline, and allowed to dry until use. The cells were digested, resuspended as a single cell suspension, counted and seeded on a 96-well cell culture plate (U87MG SLC (5000 cells/well), U251 SLC (10000 cells/well), GSC2 (10000 cells/well), GSC5 (10000 cells/well)), allowed to grow overnight. […]

GSC2 tumorspheres = assay: Experiment of tumorsphere formation; format: cell-based, human
Description: After coating the 96-well cell culture dish, 100 μL single cell suspension containing 5000 GSC2 was added to each well. After 4 days of natural growth, the original medium was removed, and 100 μL fresh culture containing various concentrations of clofoctol was added to each well. The medicament concentrations were 0.03 μM, 0.1 μM, 0.3 μM, 1 μM, 3 μM, 10 μM and 30 μM, respectively. After 48 hours of medicament treatment, the morphological changes of the tumorspheres in each treatment group were observed under the microscope, and the number of tumorspheres in each treatment group was also counted.

IC50 ([5]; Homo sapiens, four glioma stem cell strains (U87MG SLC, U251 SLC, GSC2, GSC5), after 48 hours treatment): 7.65 to 10.5 µM
Structure (SMILES): CC(C)(C)CC(C)(C)c1ccc(O)c(Cc2ccc(Cl)cc2Cl)c1 [clofoctol, 2-[(2,4-dichlorophenyl)methyl]-4-(2,4,4-trimethylpentan-2-yl)phenol]
in vivo tumor growth (green fluorescence intensity of yolk sac) (U87MG SLC-GFP xenograft): significantly inhibits the in vivo tumor growth | apoptosis in glioma stem cells (GSC2 [1]): can induce apoptosis in glioma stem cells | reversibility of the effect on glioma stem cells after removal of medicament [2]: irreversible to some extent | formation of glioma stem cell clones (self-renewal ability) (GSC5): significantly inhibits the formation of glioma stem cell clones | in situ tumorigenesis (mice with tumor / mice injected) (GSC2 [3]; GSC2 pretreated 24 hours at 30 μM, 1 * 10^5 cells/mouse, intracranial striatum): 0/5 | ability of in situ tumorigenesis in nude mice (GSC2 [3]; pretreatment of GSC2 at 30 μM for 24 hours): significantly inhibits its ability of in situ tumorigenesis in nude mice | side effects (body weight) (GSC2 subcutaneous tumors): side effects were small | tumor growth (tumor size) (GSC2 subcutaneous tumors): significantly inhibits tumor growth | relative cell viability of each cell component in the co-culture model [4]: specifically inhibits the cell activity of glioma stem cells in the co-culture model | cell activity of glioma stem cells (MTS, FIG. 1) ([5]; 48 hours, 0.3-30 μM, compared with glioma cells and normal human cell lines): specifically inhibits the cell activity of glioma stem cells | morphology of tumorspheres at low concentrations (GSC2 tumorspheres; GSC2, 0.03 μM, 0.1 μM, 48 hours): grow protuberances and exhibit clear differentiation-like characteristics | morphology of tumorspheres at high concentrations (GSC2 tumorspheres; GSC2, 10 μM, 30 μM, 48 hours): caused the death of marginal cells of tumorspheres | size and number of tumorspheres (GSC2 tumorspheres; GSC2, 48 hours, 0.03-30 μM): significantly reduce the size and number of tumorspheres

— patent US10987318B2, “Application of clofoctol for manufacturing pharmaceutical product for treating human neuroglioma” (INSTITUTE OF BASIC MEDICAL SCIENCES, CHINESE ACADEMY OF …, priority 2016, dated 2021)
